Measured values taken from patent publication US20120165330A1, “QUINAZOLINONE AND RELATED ANALOGS AS SIRTUIN MODULATORS” (Sirtris Pharmaceuticals, Inc., priority 2010, published 2012).
Where two headings read alike, the source gives them in different places.

Tests used:
SIRT1 = target: T1, SIRT1 (Homo sapiens, UniProt Q96EB6); experiment: mass spectrometry based assay to identify modulators of SIRT1 activity; type: biochemical; settings: for Emax: 25 min, percent maximum fold activation of SIRT1, read-out: SIRT1 % FOLD ACT.; for EC1.5 (concentration for 1.5-fold activation): concentration for 1.5-fold activation of SIRT1 deacetylase, 0.5 μM peptide substrate, 120 μM βNAD+, 10 nM SIRT1, 25 min at 25° C.
T1 sequence (Q96EB6 1-747): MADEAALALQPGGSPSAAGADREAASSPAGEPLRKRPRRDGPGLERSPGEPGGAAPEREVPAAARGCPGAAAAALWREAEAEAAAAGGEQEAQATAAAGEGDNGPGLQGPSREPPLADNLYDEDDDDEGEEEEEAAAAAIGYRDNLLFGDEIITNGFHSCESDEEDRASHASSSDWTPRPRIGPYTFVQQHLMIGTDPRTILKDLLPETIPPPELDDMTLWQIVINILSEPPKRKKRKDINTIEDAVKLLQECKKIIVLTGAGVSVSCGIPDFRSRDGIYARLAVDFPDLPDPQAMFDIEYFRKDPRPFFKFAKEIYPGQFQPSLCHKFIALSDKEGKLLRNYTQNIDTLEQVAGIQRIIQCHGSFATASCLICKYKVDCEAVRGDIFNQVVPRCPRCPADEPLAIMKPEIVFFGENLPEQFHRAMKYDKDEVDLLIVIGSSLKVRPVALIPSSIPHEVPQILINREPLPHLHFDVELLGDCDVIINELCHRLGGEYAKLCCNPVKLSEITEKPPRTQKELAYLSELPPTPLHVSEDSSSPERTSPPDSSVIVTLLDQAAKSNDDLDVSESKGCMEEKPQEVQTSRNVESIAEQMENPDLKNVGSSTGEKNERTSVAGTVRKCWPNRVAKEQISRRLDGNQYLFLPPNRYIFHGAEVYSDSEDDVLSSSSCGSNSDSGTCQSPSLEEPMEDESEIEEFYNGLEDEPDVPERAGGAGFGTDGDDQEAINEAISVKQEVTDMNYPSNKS
Source text: (§1) A mass spectrometry based assay was used to identify modulators of SIRT1 activity. […] The peptide is labeled with the fluorophore 5TMR (excitation 540 nm/emission 580 nm) at the C-terminus. The sequence of the peptide substrate is based on p53 with several modifications. In addition, the methionine residue naturally present in the sequence was replaced with the norleucine because the methionine may be susceptible to oxidation during synthesis and purification.
(§2) Test compounds may be added to the reaction as described above. The SirT1 gene is cloned into a T7-promoter containing vector and transformed into BL21(DE3). After the 25 minute incubation with SIRT1, 10 μL of 10% formic acid is added to stop the reaction. Reactions are sealed and frozen for later mass spec analysis. Determination of the mass of the substrate peptide allows for precise determination of the degree of acetylation (i.e. starting material) as compared to deacetylated peptide (product).
(§3) This timepoint is the same as that used for test compounds and, within the linear range, the endpoint represents a change in velocity.
For the above assay, SIRT1 protein was expressed and purified as follows. The SirT1 gene was cloned into a T7-promoter containing vector and transformed into BL21(DE3). The protein was expressed by induction with 1 mM IPTG as an N-terminal His-tag fusion protein at 18° C. overnight and harvested at 30,000×g. Cells were lysed with lysozyme in lysis buffer (50 mM Tris-HCl, 2 mM Tris[2-carboxyethyl]phosphine (TCEP), 10 μM ZnCl2, 200 mM NaCl) and further treated with sonication for 10 min for complete lysis. The protein was purified over a Ni-NTA column (Amersham) and fractions containing pure protein were pooled, concentrated and run over a sizing column ([…]). The peak containing soluble protein was collected and run on an Ion-exchange column (MonoQ). Gradient elution (200 mM-500 mM NaCl) yielded pure protein. This protein was concentrated and dialyzed against dialysis buffer (20 mM Tris-HCl, 2 mM TCEP) overnight. The protein was aliquoted and frozen at −80° C. until further use.

SIRT2 = target: T2, SIRT2 (Homo sapiens, UniProt Q8IXJ6); experiment: mass spectrometry based assay to identify modulators of SIRT2 inhibition; type: biochemical
T2 sequence (Q8IXJ6 1-389): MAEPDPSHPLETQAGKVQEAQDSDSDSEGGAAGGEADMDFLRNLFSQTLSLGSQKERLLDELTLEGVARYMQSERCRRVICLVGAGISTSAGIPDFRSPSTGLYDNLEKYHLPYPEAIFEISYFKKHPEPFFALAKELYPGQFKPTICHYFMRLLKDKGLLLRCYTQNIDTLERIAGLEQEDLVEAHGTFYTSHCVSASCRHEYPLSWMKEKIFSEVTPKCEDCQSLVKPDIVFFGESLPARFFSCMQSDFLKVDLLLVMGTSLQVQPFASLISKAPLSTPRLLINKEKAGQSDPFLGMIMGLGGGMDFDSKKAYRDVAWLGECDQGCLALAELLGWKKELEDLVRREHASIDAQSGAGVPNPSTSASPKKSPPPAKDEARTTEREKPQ
Source text: as §1, with “SIRT2 inhibition.” for “SIRT1 activity.”
as §2, with “SirT2” for “SirT1”, “30” for “25”, “SIRT2,” for “SIRT1,”
as §3
For the above assay, SIRT2 protein was expressed and purified as follows. The SirT2 gene was cloned into a T7-promoter containing vector and transformed into BL21(DE3) with chaperone plasmid. The protein was expressed by induction with 0.3 mM IPTG as an N-terminal His-tag fusion protein at 18° C. overnight and harvested at 30,000×g. Cells were lysed with sonication in lysis buffer (50 mM Tris-HCl, 10% glycerol, 300 mM NaCl, pH 7.8) for 10 min. The protein was purified over a Ni-NTA column (GE Healthcare) and eluted with lysis buffer containing 100 to 250 mM imidazole. Fractions containing target protein were pooled and TEV protease (Invitrogen) was added to the protein and incubated at 4° C. overnight in lysis buffer to remove the N-terminal His tag. The treated sample was added back on Ni-NTA column. Target protein was obtained by eluting with lysis buffer with 5 mM imidazole and loaded onto the Q-Sepharose F.F. column. The flow-through fraction of Q-Sepharose F.F. column was then directly re-adsorbed on the SP-Sepharose F.F. column and eluted with 20 mM Tris-HCl, 100 mM NaCl, pH 7.8. The protein was concentrated with 50 ml Amicon Ultra centrifugal-filter device (Millipore), then loaded on S-200 gel filtration column and eluted with 20 mM Tris-HCl, 200 mM NaCl, pH 8.0. The protein was aliquoted and frozen at −80° C. until further use.

[1] = 2.68 μM peptide substrate, 135 μM βNAD+, 50 nM SIRT2, 30 min at room temperature, read-out: SIRT2 IC50 UM

SMILES | Emax (SIRT1) [%] | EC1.5 (concentration for 1.5-fold activation) (SIRT1; read-out: SIRT1 EC1.5 UM) [µM] | IC50 (SIRT2; [1]) [µM] | IC50 (SIRT2) [µM] | EC1.5 (concentration for 1.5-fold activation) (SIRT1; read-out: SIRT1 EC1.5 µM) [µM]
Cc1nc2cccc(NC(=O)c3cscn3)c2c(=O)n1-c1cccc(OC(F)(F)F)c1 [Compound 3, N-(2-methyl-4-oxo-3-(3-(trifluoromethoxy)phenyl)-3,4-dihydroquinazolin-5-yl)thiazole-4-carboxamide] | < 150 | > 50 | < 10 | – | –
Cc1nc2cccc(NC(=O)c3cscn3)c2c(=O)n1-c1cccc(C(F)(F)F)c1 [Compound 8, N-(2-methyl-4-oxo-3-(3-(trifluoromethyl)phenyl)-3,4-dihydroquinazolin-5-yl)thiazole-4-carboxamide] | > 150 | < 50 | – | – | –
Cc1nc2cccc(NC(=O)c3cnccn3)c2c(=O)n1-c1cccc(C(F)(F)F)c1 [Compound 2, N-(2-methyl-4-oxo-3-(3-(trifluoromethyl)phenyl)-3,4-dihydroquinazolin-5-yl)pyrazine-2-carboxamide] | > 150 | – | – | 10 to 50 | < 50
Cc1nc2cccc(NC(=O)c3cccc(OCC(O)CO)n3)c2c(=O)n1-c1cccc(C(F)(F)F)c1 (stereo not drawn) [Compound 6, 6-(2,3-dihydroxypropoxy)-N-(2-methyl-4-oxo-3-(3-(trifluoromethyl)phenyl)-3,4-dihydroquinazolin-5-yl)picolinamide] | > 150 | – | – | – | < 50

Continued, in another order:

Emax (SIRT1) [%] | EC1.5 (concentration for 1.5-fold activation) (SIRT1; read-out: SIRT1 EC1.5 UM) [µM] | IC50 (SIRT2; [1]) [µM] | SMILES | IC50 (SIRT2) [µM] | EC1.5 (concentration for 1.5-fold activation) (SIRT1; read-out: SIRT1 EC1.5 µM) [µM]
> 150 | < 50 | – | Cc1nc2cccc(NC(=O)c3cccc(OCC(O)CO)n3)c2c(=O)n1-c1cccc(OC(F)(F)F)c1 (stereo not drawn) [Compound 9, 6-(2,3-dihydroxypropoxy)-N-(2-methyl-4-oxo-3-(3-(trifluoromethoxy)phenyl)-3,4-dihydroquinazolin-5-yl)picolinamide] | – | –
< 150 | > 50 | 10 to 50 | Cc1nc2cccc(NC(=O)Cc3cccnc3)c2c(=O)n1-c1cccc(OC(F)(F)F)c1 [Compound 5, N-(2-methyl-4-oxo-3-(3-(trifluoromethoxy)phenyl)-3,4-dihydroquinazolin-5-yl)-2-(pyridin-3-yl)acetamide] | – | –
> 150 | < 50 | 10 to 50 | Cc1nc2cccc(NC(=O)c3cnccn3)c2c(=O)n1-c1cccc(OC(F)(F)F)c1 [Compound 4, N-(2-methyl-4-oxo-3-(3-(trifluoromethoxy)phenyl)-3,4-dihydroquinazolin-5-yl)pyrazine-2-carboxamide] | – | –
> 150 | < 50 | – | Cc1nc2cccc(NC(=O)c3cccc(CN4CCOCC4)n3)c2c(=O)n1-c1cccc(C(F)(F)F)c1 [Compound 7, N-(2-methyl-4-oxo-3-(3-(trifluoromethyl)phenyl)-3,4-dihydroquinazolin-5-yl)-6-(morpholinomethyl)picolinamide] | – | –
– | – | < 10 | Cc1nc2cccc(NC(=O)c3cscn3)c2c(=O)n1-c1cccc(C(F)(F)F)c1 [Compound 1, N-(2-methyl-4-oxo-3-(3-(trifluoromethyl)phenyl)-3,4-dihydroquinazolin-5-yl)thiazole-4-carboxamide] | – | –
